Assays:
Assay in all cases: KINOMEscan competition binding
Details in all cases: compound 10.0 µM
AKT1 (human) = AKT1 (human) (UniProt P31749)
AKT3 (human) = AKT3 (human) (UniProt Q9Y243)
CDC42BPA (human) = CDC42BPA (human) (UniProt Q5VT25)
CDC42BPG (human) = CDC42BPG (human) (UniProt Q6DT37)
CDK11B (human) = CDK11B (human) (UniProt P21127)
CDK14 (human) = CDK14 (human) (UniProt O94921)
CSF1R (human) = CSF1R (human) (UniProt P07333)
DYRK1B (human) = DYRK1B (human) (UniProt Q9Y463)
[1] = test system: EGFR (human), P00533 [752-759 del]
EPHA8 (human) = EPHA8 (human) (UniProt P29322)
[2] = test system: FLT3 (human), P36888 [R834Q]
LYN (human) = LYN (human) (UniProt P07948)
MAP2K2 (human) = MAP2K2 (human) (UniProt P36507)
MAP2K3 (human) = MAP2K3 (human) (UniProt P46734)
MAP2K3 (human), sequence (P46734 whole entry, looked up): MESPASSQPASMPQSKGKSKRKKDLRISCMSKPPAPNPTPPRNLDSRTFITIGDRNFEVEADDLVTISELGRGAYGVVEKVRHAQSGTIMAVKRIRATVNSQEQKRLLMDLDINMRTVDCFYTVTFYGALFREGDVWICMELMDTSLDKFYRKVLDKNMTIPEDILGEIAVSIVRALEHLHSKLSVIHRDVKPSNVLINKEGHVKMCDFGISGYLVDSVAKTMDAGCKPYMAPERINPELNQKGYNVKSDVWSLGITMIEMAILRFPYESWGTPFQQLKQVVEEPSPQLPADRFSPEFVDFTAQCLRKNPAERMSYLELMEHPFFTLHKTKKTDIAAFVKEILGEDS

MAP2K4 (human) = MAP2K4 (human) (UniProt P45985)
MAP4K3 (human) = MAP4K3 (human) (UniProt Q8IVH8)
MAP4K3 (human), sequence (Q8IVH8 whole entry, looked up): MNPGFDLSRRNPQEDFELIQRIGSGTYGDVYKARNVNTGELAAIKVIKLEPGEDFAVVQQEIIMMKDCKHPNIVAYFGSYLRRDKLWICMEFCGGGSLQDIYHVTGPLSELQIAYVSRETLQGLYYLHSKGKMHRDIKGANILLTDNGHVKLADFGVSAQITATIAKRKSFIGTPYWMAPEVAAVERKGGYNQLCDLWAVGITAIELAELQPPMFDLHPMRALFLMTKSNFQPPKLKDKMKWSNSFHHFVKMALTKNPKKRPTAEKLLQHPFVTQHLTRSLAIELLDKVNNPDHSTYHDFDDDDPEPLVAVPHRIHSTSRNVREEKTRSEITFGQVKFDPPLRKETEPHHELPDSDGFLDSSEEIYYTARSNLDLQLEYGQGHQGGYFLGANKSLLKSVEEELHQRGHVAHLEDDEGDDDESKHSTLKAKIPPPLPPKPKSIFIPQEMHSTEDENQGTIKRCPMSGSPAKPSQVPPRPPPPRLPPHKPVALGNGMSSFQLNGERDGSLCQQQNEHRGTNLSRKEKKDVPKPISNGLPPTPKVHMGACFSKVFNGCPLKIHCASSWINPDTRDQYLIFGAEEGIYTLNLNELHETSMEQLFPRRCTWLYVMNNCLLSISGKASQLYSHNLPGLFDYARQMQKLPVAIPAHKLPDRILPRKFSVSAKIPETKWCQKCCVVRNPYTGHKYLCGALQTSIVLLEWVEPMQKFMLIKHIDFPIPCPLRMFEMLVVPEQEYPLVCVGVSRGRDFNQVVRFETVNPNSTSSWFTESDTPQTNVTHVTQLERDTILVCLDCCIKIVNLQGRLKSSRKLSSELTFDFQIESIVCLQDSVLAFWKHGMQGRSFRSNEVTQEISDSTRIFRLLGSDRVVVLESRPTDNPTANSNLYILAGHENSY

MAPK1 (human) = MAPK1 (human) (UniProt P28482)
MAPK10 (human) = MAPK10 (human) (UniProt P53779)
MAPK15 (human) = MAPK15 (human) (UniProt Q8TD08)
[3] = test system: MET (human), P08581 [Y1235D]
MKNK2 (human) = MKNK2 (human) (UniProt Q9HBH9)
MKNK2 (human), sequence (Q9HBH9 whole entry, looked up): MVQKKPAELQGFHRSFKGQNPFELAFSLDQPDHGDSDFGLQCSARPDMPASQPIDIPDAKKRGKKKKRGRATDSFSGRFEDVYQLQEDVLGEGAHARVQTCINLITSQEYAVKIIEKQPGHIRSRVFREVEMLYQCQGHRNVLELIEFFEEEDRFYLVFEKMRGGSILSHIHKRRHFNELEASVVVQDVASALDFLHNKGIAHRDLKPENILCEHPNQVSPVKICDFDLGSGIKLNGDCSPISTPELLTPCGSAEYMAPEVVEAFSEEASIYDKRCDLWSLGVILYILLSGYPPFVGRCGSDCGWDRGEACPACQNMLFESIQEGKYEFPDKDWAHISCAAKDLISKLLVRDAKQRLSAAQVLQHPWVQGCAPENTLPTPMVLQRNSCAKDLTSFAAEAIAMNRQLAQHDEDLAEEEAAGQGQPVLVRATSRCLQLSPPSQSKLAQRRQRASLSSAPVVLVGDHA

NLK (human) = NLK (human) (UniProt Q9UBE8)
NLK (human), sequence (Q9UBE8 whole entry, looked up): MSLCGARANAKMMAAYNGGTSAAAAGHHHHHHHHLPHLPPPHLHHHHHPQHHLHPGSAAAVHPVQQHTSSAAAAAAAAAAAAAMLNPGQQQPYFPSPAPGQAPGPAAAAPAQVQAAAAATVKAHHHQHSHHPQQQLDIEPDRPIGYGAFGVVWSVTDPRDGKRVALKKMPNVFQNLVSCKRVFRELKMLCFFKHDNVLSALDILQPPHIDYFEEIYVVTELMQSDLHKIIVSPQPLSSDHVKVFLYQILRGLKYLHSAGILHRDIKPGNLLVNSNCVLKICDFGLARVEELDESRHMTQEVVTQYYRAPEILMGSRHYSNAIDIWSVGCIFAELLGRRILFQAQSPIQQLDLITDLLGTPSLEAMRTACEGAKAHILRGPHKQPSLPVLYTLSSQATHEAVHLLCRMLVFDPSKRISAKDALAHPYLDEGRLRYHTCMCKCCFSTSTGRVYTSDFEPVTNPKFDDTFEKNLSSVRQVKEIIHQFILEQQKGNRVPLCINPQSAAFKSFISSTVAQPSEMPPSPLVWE

PAK3 (human) = PAK3 (human) (UniProt O75914)
PAK6 (human) = PAK6 (human) (UniProt Q9NQU5)
PDGFRB (human) = PDGFRB (human) (UniProt P09619)
PHKG1 (human) = PHKG1 (human) (UniProt Q16816)
PIP5K1A (human) = PIP5K1A (human) (UniProt Q99755)
PRKCE (human) = PRKCE (human) (UniProt Q02156)
PRKD3 (human) = PRKD3 (human) (UniProt O94806)
PTK2 (human) = PTK2 (human) (UniProt Q05397)
PTK2 (human), sequence (Q05397 whole entry, looked up): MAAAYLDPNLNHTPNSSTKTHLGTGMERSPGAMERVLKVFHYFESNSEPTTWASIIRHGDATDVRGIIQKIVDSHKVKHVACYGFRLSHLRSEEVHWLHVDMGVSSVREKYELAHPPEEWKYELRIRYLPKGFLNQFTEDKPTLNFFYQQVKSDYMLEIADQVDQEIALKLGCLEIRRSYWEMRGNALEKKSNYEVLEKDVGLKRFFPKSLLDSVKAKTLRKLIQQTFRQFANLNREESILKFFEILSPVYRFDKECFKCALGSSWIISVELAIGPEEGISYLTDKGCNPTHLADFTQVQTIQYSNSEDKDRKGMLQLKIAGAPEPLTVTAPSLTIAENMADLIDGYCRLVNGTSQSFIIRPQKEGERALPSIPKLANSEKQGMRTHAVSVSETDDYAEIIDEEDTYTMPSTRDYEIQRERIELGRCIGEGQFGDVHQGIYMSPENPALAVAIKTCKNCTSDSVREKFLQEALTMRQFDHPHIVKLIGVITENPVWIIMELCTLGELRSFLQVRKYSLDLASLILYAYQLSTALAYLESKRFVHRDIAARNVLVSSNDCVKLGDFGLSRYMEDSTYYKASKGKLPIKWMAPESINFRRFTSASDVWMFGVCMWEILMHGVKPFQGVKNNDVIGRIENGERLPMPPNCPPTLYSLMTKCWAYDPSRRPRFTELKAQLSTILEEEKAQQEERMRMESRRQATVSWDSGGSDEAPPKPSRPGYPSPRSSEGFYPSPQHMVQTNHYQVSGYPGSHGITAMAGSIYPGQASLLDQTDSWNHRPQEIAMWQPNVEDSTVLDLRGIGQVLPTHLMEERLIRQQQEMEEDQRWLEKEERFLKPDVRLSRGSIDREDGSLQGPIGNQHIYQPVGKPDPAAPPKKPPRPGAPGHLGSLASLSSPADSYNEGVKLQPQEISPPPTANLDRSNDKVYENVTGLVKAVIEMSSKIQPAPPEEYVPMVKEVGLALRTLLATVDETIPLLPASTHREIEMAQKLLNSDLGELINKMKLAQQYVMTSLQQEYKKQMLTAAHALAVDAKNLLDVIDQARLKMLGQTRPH

RIOK1 (human) = RIOK1 (human) (UniProt Q9BRS2)
RPS6KA2 KD2 (human) = RPS6KA2 KD2 (human) (UniProt Q15349)
RPS6KA2 KD2 (human), sequence (Q15349 whole entry, looked up): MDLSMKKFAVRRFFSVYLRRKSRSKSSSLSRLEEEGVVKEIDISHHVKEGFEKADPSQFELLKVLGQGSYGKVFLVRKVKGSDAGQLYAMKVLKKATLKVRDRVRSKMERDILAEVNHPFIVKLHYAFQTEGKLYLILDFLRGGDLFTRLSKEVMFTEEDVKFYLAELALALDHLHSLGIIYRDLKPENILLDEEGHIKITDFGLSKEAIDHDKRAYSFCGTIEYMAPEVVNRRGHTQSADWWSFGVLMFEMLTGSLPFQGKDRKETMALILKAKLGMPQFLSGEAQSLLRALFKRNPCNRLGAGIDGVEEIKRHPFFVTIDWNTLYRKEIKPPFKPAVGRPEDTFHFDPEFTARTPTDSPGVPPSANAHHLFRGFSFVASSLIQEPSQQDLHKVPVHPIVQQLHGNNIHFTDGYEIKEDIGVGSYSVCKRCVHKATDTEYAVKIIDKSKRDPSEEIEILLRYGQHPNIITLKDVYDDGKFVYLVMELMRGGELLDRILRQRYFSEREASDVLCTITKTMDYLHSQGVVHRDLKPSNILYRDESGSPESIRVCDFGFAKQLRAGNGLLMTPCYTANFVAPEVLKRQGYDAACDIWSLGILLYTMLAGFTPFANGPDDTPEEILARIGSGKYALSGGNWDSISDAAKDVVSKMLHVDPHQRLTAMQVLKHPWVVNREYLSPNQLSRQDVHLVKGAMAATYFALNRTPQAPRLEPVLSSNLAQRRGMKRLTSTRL

SBK1 (human) = SBK1 (human) (UniProt Q52WX2)
SIK1 (human) = SIK1 (human) (UniProt P57059)
SIK3 (human) = SIK3 (human) (UniProt Q9Y2K2)
SRPK3 (human) = SRPK3 (human) (UniProt Q9UPE1)
TTK (human) = TTK (human) (UniProt P33981)
[4] = biological target: TYK2 JH2 pseudokinase (human) (UniProt P29597)
VRK2 (human) = VRK2 (human) (UniProt Q86Y07)
YSK4 (human) = YSK4 (human) (UniProt Q56UN5)

CSF1R (human), sequence (P07333 whole entry, looked up): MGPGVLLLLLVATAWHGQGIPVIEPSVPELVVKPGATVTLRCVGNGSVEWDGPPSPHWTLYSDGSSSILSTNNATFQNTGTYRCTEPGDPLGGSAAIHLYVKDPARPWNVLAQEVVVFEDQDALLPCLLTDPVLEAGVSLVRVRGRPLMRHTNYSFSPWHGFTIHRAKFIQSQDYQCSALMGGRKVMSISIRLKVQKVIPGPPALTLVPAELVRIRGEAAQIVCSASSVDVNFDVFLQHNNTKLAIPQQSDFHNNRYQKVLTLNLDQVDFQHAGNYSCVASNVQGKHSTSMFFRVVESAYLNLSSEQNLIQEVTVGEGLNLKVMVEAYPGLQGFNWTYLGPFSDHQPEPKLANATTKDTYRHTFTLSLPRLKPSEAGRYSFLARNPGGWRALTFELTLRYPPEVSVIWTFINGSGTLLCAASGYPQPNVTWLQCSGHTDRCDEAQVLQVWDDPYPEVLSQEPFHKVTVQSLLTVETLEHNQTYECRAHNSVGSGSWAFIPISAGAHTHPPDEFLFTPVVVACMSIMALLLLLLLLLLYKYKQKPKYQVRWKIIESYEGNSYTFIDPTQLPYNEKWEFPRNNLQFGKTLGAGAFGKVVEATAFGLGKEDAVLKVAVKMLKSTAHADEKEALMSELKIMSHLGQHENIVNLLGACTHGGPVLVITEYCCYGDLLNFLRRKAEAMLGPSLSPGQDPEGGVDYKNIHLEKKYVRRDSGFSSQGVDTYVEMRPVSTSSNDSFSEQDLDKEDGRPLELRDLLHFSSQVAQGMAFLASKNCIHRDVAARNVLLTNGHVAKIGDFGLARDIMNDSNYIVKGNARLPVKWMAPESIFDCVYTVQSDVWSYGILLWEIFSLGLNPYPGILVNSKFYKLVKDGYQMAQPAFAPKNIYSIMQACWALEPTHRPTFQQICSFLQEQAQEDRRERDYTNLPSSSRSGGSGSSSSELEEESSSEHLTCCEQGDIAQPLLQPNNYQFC

Compound: COc1cc(C(=O)N2CCC(N3CCN(C)CC3)CC2)ccc1Nc1ncc2c(n1)N(C)c1ccccc1C(=O)N2C
- kinase still bound, per cent of control (AKT1 (human)): 79%
- kinase still bound, per cent of control (AKT3 (human)): 100%
- kinase still bound, per cent of control (CDC42BPA (human)): 100%
- kinase still bound, per cent of control (CDC42BPG (human)): 100%
- kinase still bound, per cent of control (CDK11B (human)): 84%
- kinase still bound, per cent of control (CDK14 (human)): 81%
- kinase still bound, per cent of control (CSF1R (human)): 98%
- kinase still bound, per cent of control (DYRK1B (human)): 94%
- kinase still bound, per cent of control [1]: 99%
- kinase still bound, per cent of control (EPHA8 (human)): 80%
- kinase still bound, per cent of control [2]: 100%
- kinase still bound, per cent of control (LYN (human)): 100%
- kinase still bound, per cent of control (MAP2K2 (human)): 99%
- kinase still bound, per cent of control (MAP2K3 (human)): 75%
- kinase still bound, per cent of control (MAP2K4 (human)): 100%
- kinase still bound, per cent of control (MAP4K3 (human)): 71%
- kinase still bound, per cent of control (MAPK1 (human)): 85%
- kinase still bound, per cent of control (MAPK10 (human)): 77%
- kinase still bound, per cent of control (MAPK15 (human)): 100%
- kinase still bound, per cent of control [3]: 100%
- kinase still bound, per cent of control (MKNK2 (human)): 1.2%
- kinase still bound, per cent of control (NLK (human)): 50%
- kinase still bound, per cent of control (PAK3 (human)): 83%
- kinase still bound, per cent of control (PAK6 (human)): 98%
- kinase still bound, per cent of control (PDGFRB (human)): 100%
- kinase still bound, per cent of control (PHKG1 (human)): 54%
- kinase still bound, per cent of control (PIP5K1A (human)): 90%
- kinase still bound, per cent of control (PRKCE (human)): 100%
- kinase still bound, per cent of control (PRKD3 (human)): 42%
- kinase still bound, per cent of control (PTK2 (human)): 34%
- kinase still bound, per cent of control (RIOK1 (human)): 100%
- kinase still bound, per cent of control (RPS6KA2 KD2 (human)): 7.5%
- kinase still bound, per cent of control (SBK1 (human)): 100%
- kinase still bound, per cent of control (SIK1 (human)): 77%
- kinase still bound, per cent of control (SIK3 (human)): 100%
- kinase still bound, per cent of control (SRPK3 (human)): 72%
- kinase still bound, per cent of control (TTK (human)): 28%
- kinase still bound, per cent of control [4]: 100%
- kinase still bound, per cent of control (VRK2 (human)): 99%
- kinase still bound, per cent of control (YSK4 (human)): 99%

Compound: CN(C)C/C=C/C(=O)Nc1ccc(C(=O)Nc2cccc(Nc3nccc(-c4cccnc4)n3)c2)cc1
- kinase still bound, per cent of control (AKT1 (human)): 100%
- kinase still bound, per cent of control (AKT3 (human)): 100%
- kinase still bound, per cent of control (CDC42BPA (human)): 100%
- kinase still bound, per cent of control (CDC42BPG (human)): 76%
- kinase still bound, per cent of control (CDK11B (human)): 91%
- kinase still bound, per cent of control (CDK14 (human)): 98%
- kinase still bound, per cent of control (CSF1R (human)): 100%
- kinase still bound, per cent of control (DYRK1B (human)): 24%
- kinase still bound, per cent of control [1]: 88%
- kinase still bound, per cent of control (EPHA8 (human)): 91%
- kinase still bound, per cent of control [2]: 83%
- kinase still bound, per cent of control (LYN (human)): 100%
- kinase still bound, per cent of control (MAP2K2 (human)): 87%
- kinase still bound, per cent of control (MAP2K3 (human)): 24%
- kinase still bound, per cent of control (MAP2K4 (human)): 9.8%
- kinase still bound, per cent of control (MAP4K3 (human)): 57%
- kinase still bound, per cent of control (MAPK1 (human)): 77%
- kinase still bound, per cent of control (MAPK10 (human)): 1.3%
- kinase still bound, per cent of control (MAPK15 (human)): 23%
- kinase still bound, per cent of control [3]: 100%
- kinase still bound, per cent of control (MKNK2 (human)): 7.3%
- kinase still bound, per cent of control (NLK (human)): 82%
- kinase still bound, per cent of control (PAK3 (human)): 100%
- kinase still bound, per cent of control (PAK6 (human)): 46%
- kinase still bound, per cent of control (PDGFRB (human)): 3.6%
- kinase still bound, per cent of control (PHKG1 (human)): 96%
- kinase still bound, per cent of control (PIP5K1A (human)): 34%
- kinase still bound, per cent of control (PRKCE (human)): 75%
- kinase still bound, per cent of control (PRKD3 (human)): 94%
- kinase still bound, per cent of control (PTK2 (human)): 100%
- kinase still bound, per cent of control (RIOK1 (human)): 10%
- kinase still bound, per cent of control (RPS6KA2 KD2 (human)): 100%
- kinase still bound, per cent of control (SBK1 (human)): 100%
- kinase still bound, per cent of control (SIK1 (human)): 100%
- kinase still bound, per cent of control (SIK3 (human)): 64%
- kinase still bound, per cent of control (SRPK3 (human)): 28%
- kinase still bound, per cent of control (TTK (human)): 77%
- kinase still bound, per cent of control [4]: 0.2%
- kinase still bound, per cent of control (VRK2 (human)): 90%
- kinase still bound, per cent of control (YSK4 (human)): 0.1%

Compound: COc1ccc(N(C(=O)Oc2c(C)cccc2C)c2ccnc(Nc3ccc(N4CCN(C)CC4)cc3)n2)c(OC)c1
- kinase still bound, per cent of control (AKT1 (human)): 100%
- kinase still bound, per cent of control (AKT3 (human)): 100%
- kinase still bound, per cent of control (CDC42BPA (human)): 16%
- kinase still bound, per cent of control (CDC42BPG (human)): 0.45%
- kinase still bound, per cent of control (CDK11B (human)): 58%
- kinase still bound, per cent of control (CDK14 (human)): 93%
- kinase still bound, per cent of control (CSF1R (human)): 0.1%
- kinase still bound, per cent of control (DYRK1B (human)): 68%
- kinase still bound, per cent of control [1]: 1%
- kinase still bound, per cent of control (EPHA8 (human)): 0.2%
- kinase still bound, per cent of control [2]: 26%
- kinase still bound, per cent of control (LYN (human)): 0%
- kinase still bound, per cent of control (MAP2K2 (human)): 46%
- kinase still bound, per cent of control (MAP2K3 (human)): 66%
- kinase still bound, per cent of control (MAP2K4 (human)): 100%
- kinase still bound, per cent of control (MAP4K3 (human)): 1.4%
- kinase still bound, per cent of control (MAPK1 (human)): 87%
- kinase still bound, per cent of control (MAPK10 (human)): 37%
- kinase still bound, per cent of control (MAPK15 (human)): 76%
- kinase still bound, per cent of control [3]: 1.6%
- kinase still bound, per cent of control (MKNK2 (human)): 90%
- kinase still bound, per cent of control (NLK (human)): 3.9%
- kinase still bound, per cent of control (PAK3 (human)): 4%
- kinase still bound, per cent of control (PAK6 (human)): 71%
- kinase still bound, per cent of control (PDGFRB (human)): 0%
- kinase still bound, per cent of control (PHKG1 (human)): 12%
- kinase still bound, per cent of control (PIP5K1A (human)): 0.45%
- kinase still bound, per cent of control (PRKCE (human)): 27%
- kinase still bound, per cent of control (PRKD3 (human)): 11%
- kinase still bound, per cent of control (PTK2 (human)): 32%
- kinase still bound, per cent of control (RIOK1 (human)): 5.8%
- kinase still bound, per cent of control (RPS6KA2 KD2 (human)): 78%
- kinase still bound, per cent of control (SBK1 (human)): 100%
- kinase still bound, per cent of control (SIK1 (human)): 0.3%
- kinase still bound, per cent of control (SIK3 (human)): 22%
- kinase still bound, per cent of control (SRPK3 (human)): 11%
- kinase still bound, per cent of control (TTK (human)): 42%
- kinase still bound, per cent of control [4]: 100%
- kinase still bound, per cent of control (VRK2 (human)): 100%
- kinase still bound, per cent of control (YSK4 (human)): 6%

From the kinase profiling compilation of Christmann-Franck et al. (2016)
